Patent US10793526B2, “Hydantoin derivative compounds, methods of use and methods of treatment” (University of South Florida, priority 2016, dated 2020)
≈ marks a conversion by molar mass, not a printed value.

What was measured:
[1] = tested on: vancomycin-resistant Enterococcus faecalis (VREF, ATCC 700802); experiment: Minimum inhibitory concentration (MIC) assay, VREF; type: cell-based; details: Enterococcus faecalis, ATCC700802, Gram positive, 16 h incubation, read-out: MIC (μg/mL) VREF
Protocol: (§1) Minimum inhibitory concentrations (MICs) assay.^2
(§2) All compounds were tested against six different bacteria strains: methicillin-resistant S. aureus (MRSA, ATCC 33591), E. coli (ATCC 25922), methicillin-resistant S. epidermidis (MRSE, RP62A), K. pneumoniae (ATCC 13383), vancomycin-resistant Enterococcus faecalis (VREF, ATCC 700802), P. aeruginosa (ATCC 27853). One colony of each bacteria was inoculated in 4 mL TSB buffer at 37° C. overnight, which was then diluted 100 times, and the bacteria were allowed to grow to the mid-logarithmic phase. 50 μL hydantoin compounds in 2-fold serial dilution of TSB were added in the 96-well plate, then 50 μL diluted bacterial in TSB medium (1×10^6 CFU/mL) was added to each well. After 16 h of incubation at 37° C., the absorption at 600 nm wavelength on a Biotek Synergy HT microtiter plate reader was recorded. Minimum inhibitory concentrations were determined as the lowest concentrations that inhibited bacteria growth completely.

[2] = tested on: P. aeruginosa (ATCC 27853); experiment: Minimum inhibitory concentration (MIC) assay, P. aeruginosa; type: cell-based, Pseudomonas aeruginosa
Protocol: as §1, §2

[3] = tested on: K. pneumoniae (ATCC 13383); experiment: Minimum inhibitory concentration (MIC) assay, K. pneumoniae; type: cell-based, Klebsiella pneumoniae; details: Klebsiella pneumoniae, ATCC13383, Gram negative, 16 h incubation, read-out: MIC (μg/mL) K.P.
Protocol: as §1, §2

[4] = tested on: ovarian cancer cells (C13); experiment: Selectivity for mammalian cells, C13; type: cell-based; details: Homo sapiens, read-out: IC50 toward ovarian cancer cells (C13)
[5] = tested on: colon cancer cells (HCT116); experiment: Selectivity for mammalian cells, HCT116; type: cell-based; details: Homo sapiens, HCT-116; read-out: IC50 toward colon cancer cells (HCT116)
MRSA [6] = experiment: Fluorescence microscopy (DAPI/PI) membrane damage, MRSA; type: cell-based, Staphylococcus aureus; details: 5 μg/mL, 2 h
E. coli [7] = experiment: Fluorescence microscopy (DAPI/PI) membrane damage, E. coli; type: cell-based, Escherichia coli; details: 5 μg/mL, 2 h
Protocol: Fluorescence microscopy.^2
Both propidium iodide (PI) and 4′, 6′-diamidino-2-phenylindole dihydrochloride (DAPI) fluorescent dyes were used in the studies to determine the ability of the compound 22 to compromise the membranes of MRSA and E. coli, respectively. […] After centrifugation for 15 min at 5000 rpm, cell pellets were washed with 1×PBS buffer, and incubated with PI (5 μg/mL) for 15 min on ice in the dark, then washed 2 times with PBS. Then the cell pellets were incubated with DAPI (10 μg/mL) in the similar way. The pellets were then diluted in 100 μL PBS, and 10-20 μL of the suspension was applied on chamber slides and observed under Zeiss Axio Image Zloptical microscope using 100× oil-immersion objective.

MRSA [8] = experiment: Time kill assay, MRSA; type: cell-based, Staphylococcus aureus
Protocol: (§3) Bacteria MRSA (Gram-positive) and E. coli (Gram-negative) suspensions were allowed to grow at 37° C. to the mid-logarithmic phase, and diluted to 1×10^6 CFU/mL, then incubated with the compound 22 at the concentration of 50, 25, 12.5 μg/mL at 10 min, 30 min, 1 h and 2 h, respectively. The resulted mixture was then diluted by 10^2 to 10^4 fold, from which 100 μL was spread on the TSB agar plate. The Number of bacteria colonies was counted after 20 h of incubation at 37° C.

E. coli [9] = experiment: Time kill assay, E. coli; type: cell-based, Escherichia coli
Protocol: as §3, with “[…],” for “then incubated with the compound 22 at the concentration of 50, 25, 12.5 μg/mL at 10 min,”

MRSA [10] = experiment: Drug resistance assay; type: cell-based, Staphylococcus aureus
Protocol: The lead compound 22 was chosen for drug resistance studies. Briefly, after its MIC against MRSA was determined, the bacteria solution from the well of the ½ MIC was withdrawn and diluted to 1×10^6 CFU/mL for the next MIC measurement. The measurement was repeated for 14 passages.

MRSA [11] = experiment: Rat model of MRSA-induced pneumonia, bacterial count in lungs; type: in vivo; details: 10 mg/kg i.v.
Protocol: (§4) The rat model of MRSA-induced pneumonia.^4, 5
(§5) The protocol of animal studies was approved by the institutional committee for animal care of Nanjing University, and the experiments were conducted following the regulation of the National Ministry of Health of China. In Brief, male Wistar rats (6-8 weeks, ˜200 g in average weight) were subjected to fast for 12 h. Next, rats were anesthetized by intraperitoneal administration of 0.35 g/kg of chloral hydrate. To induce MRSA pneumonia, the trachea of rats were exposed, to which 100 μL PBS containing 2×10^6 CFU/mL MRSA in PBS was slowly injected. The rats were retained upright for 1 min, and the cut was sealed. The MRSA infection was allowed to develop for 24 h.
Bronchoalveolar lavage (BAL) assay.
The assay was carried out to quantify the bacteria in the lungs of rats. The thorax of rats was opened, and the lungs were collected in each group at different time points. Then the lungs were malleated and homogenized by a glass homogenizer, and diluted with PBS to the determined volume. After that, 10 μL solution was picked up, diluted with PBS by 100-fold, and daubed on the isolation medium. Bacteria were counted in each sample after incubation for 24 h at 37° C., from which the number of bacteria (colonies/g tissue) was calculated.

[12] = tested on: MRSA-induced lung inflammation; experiment: Rat model of MRSA-induced pneumonia, pathological analysis (H&E); type: in vivo; details: 10 mg/kg i.v.
Protocol: as §4, §5
The hydantoin compound 22 or vancomycin were used as antibiotics in the study. In brief, a dose of 10 mg/kg of the drug was injected to the tested rats intravenously. On the day of 3 and 5, rats were sacrificed, and lung sections were stained with hematoxylin and eosin (H&E), and their morphology was investigated under a light microscope at 100× magnification. The existence (indicated by the infiltration of neutrophils) and the extent of possible inflammatory response (indicated by the integrity of the alveolar structure and endothelium cilium) were recorded from at least five randomly picked sections by an experienced physician.

CCCCCCCCCCCC(=O)N[C@@H](CCCCN)CN1CC(=O)N(c2cccc(Cl)c2)C1=O [Compound 22, (S)—N-(6-amino-1-(3-(3-chlorophenyl)-2,4-dioxoimidazolidin-1-yl)hexan-2-yl)dodecanamide]
MIC [1]: 0.5 µg/mL
MIC ([2]; Pseudomonas aeruginosa, ATCC27853, Gram negative, ATCC 27853, 16 h incubation, read-out: MIC (μg/mL) P.A.): 1 µg/mL
effectiveness toward P. aeruginosa compared with nitrofurantoin ([2]; ratio of MICs): at least 50 fold
MIC [3]: 0.78 µg/mL
IC50 [4]: 90 mg/L (≈ 177 µM)
IC50 [5]: 100 mg/L (≈ 197 µM)
membrane damage of MRSA (DAPI/PI staining) (MRSA [6]): membranes of both MRSA and E. coli were damaged
membrane damage of E. coli (DAPI/PI staining) (E. coli [7]): membranes of both MRSA and E. coli were damaged
time to completely eradicate MRSA (MRSA [8]; 2.0 μg/mL (4×MIC)): 60 min
time to completely eradicate MRSA (MRSA [8]; 25 μg/mL): 10 min
time to completely eradicate E. coli (E. coli [9]; 4.0 μg/mL (4×MIC)): 60 min
time to eradicate all E. coli (E. coli [9]; 25 μg/mL): 30 min
time to eradicate all E. coli (E. coli [9]; 50 μg/mL): 30 min
MIC against MRSA after 14 passages at half MIC (MRSA [10]): virtually remain unchanged
reduction of bacteria compared with the control, day 5 (MRSA [11]): 96%
lung inflammation (H&E staining), day 3 ([12]; day 3): only mild inflammation
lung inflammation (H&E staining), day 5 ([12]; day 5): virtually the normal condition
